Data reported in patent publication US9368421B2, “Under-fill material and method for producing semiconductor device” (NITTO DENKO CORPORATION, priority 2011, dated 2016).

Assay: Acid dissociation constant pKa of flux agent
Conditions: for pKa: dilute aqueous solution; for pKa1: first dissociation constant of a dicarboxylic acid
Experimental: The pKa can be determined by measuring an acid dissociation constant Ka=[H3O][B^−]/[BH] under the condition of a dilute aqueous solution of the carboxyl group-containing compound and using the equation of pKa=−log Ka. Here, BH represents a carboxyl group-containing compound, and B^− represents a conjugate base of the carboxyl group-containing compound. The pKa can be measured in such a manner that a hydrogen ion concentration is measured using a pH meter, and the pKa is calculated from the concentration of a relevant substance and the hydrogen ion concentration.

pKa	pKa1	Structure (SMILES)
3.5		O=C(O)c1ccccc1-c1ccccc1 [2-phenylbenzoic acid]
4.9		CN(C)c1ccc(C(=O)O)cc1 [p-dimethylaminobenzoic acid]
2.5		O=C(O)c1ccccc1[N+](=O)[O-] [2-nitrobenzoic acid]

More lines, now with the values behind:

Structure (SMILES)	pKa	pKa1
O=C(O)c1c(O)cccc1O [2,6-dihydroxybenzoic acid]	1.2	
O=C(O)CCCCCCCCCCC(=O)O [Dodecanedioic acid, dodecanedioic acid]	5	5.0
O=C(O)C1CCCCC1C(=O)O (stereo not shown)	4.4	4.4
O=C(O)CCCCCCC(=O)O [Octanedioic acid, octanedioic acid]	4.5	4.5
